Assays:
[1] = test system: Rattus norvegicus; experiment: Antiinflammatory activity in Wistar rat assessed as inhibition of carrageenan-induced edema measured as increase in foot volume at 5 mg/kg, po administered 1 hr prior challenge measured 3 hrs after carrageenin injection (reference value: 187.6 %); type: functional; design: scale not given: the % may be the effect or the level left
[2] = test system: Rattus norvegicus; experiment: Antiinflammatory activity in Wistar rat assessed as inhibition of carrageenan-induced edema measured as increase in foot volume at 20 mg/kg, po administered 1 hr prior challenge measured 3 hrs after carrageenin injection (reference value: 187.6 %); type: functional; design: scale not given: the % may be the effect or the level left
[3] = test system: Rattus norvegicus; experiment: Antiinflammatory activity in Wistar rat assessed as inhibition of carrageenan-induced edema measured as increase in foot volume at 40 mg/kg, po administered 1 hr prior challenge measured 3 hrs after carrageenin injection (reference value: 187.6 %); type: functional; design: scale not given: the % may be the effect or the level left
[4] = test system: Rattus norvegicus; experiment: Antiinflammatory activity in Wistar rat assessed as inhibition of carrageenan-induced edema measured as increase in foot volume at 5 mg/kg, po administered 1 hr prior challenge measured 7 hrs after carrageenin injection (reference value: 178.8 %); type: functional; design: scale not given: the % may be the effect or the level left
[5] = test system: Rattus norvegicus; experiment: Antiinflammatory activity in Wistar rat assessed as inhibition of carrageenan-induced edema measured as increase in foot volume at 20 mg/kg, po administered 1 hr prior challenge measured 7 hrs after carrageenin injection (reference value: 178.8 %); type: functional; design: scale not given: the % may be the effect or the level left
[6] = test system: Rattus norvegicus; experiment: Antiinflammatory activity in Wistar rat assessed as inhibition of carrageenan-induced edema measured as increase in foot volume at 40 mg/kg, po administered 1 hr prior challenge measured 7 hrs after carrageenin injection (reference value: 178.8 %); type: functional; design: scale not given: the % may be the effect or the level left
[7] = Toxicity in ip dosed Swiss mouse; type: organism-based; conditions: in vivo

Row | SMILES | Activity [1] | Activity [2] | Activity [3] | Activity [4] | Activity [5] | Activity [6] | LD50 [7]
1 | O=C(O)c1c(Cl)n(-c2ccccc2)c2ccccc12 | 159.8% | 149.4% | 173.8% | 151.4% | 130.1% | 201.1% | > 500 mg/kg
2 | Cn1c(Cl)c(C(=O)O)c2ccccc21 | 145.1% | 146.5% | 148.3% | 133.3% | 133.8% | 150.7% | > 500 mg/kg
3 | O=C(O)c1c(Cl)[nH]c2ccccc12 | 153.1% | 161.7% | 156.4% | 143.4% | 153.5% | 132.1% | > 500 mg/kg
4 | COc1ccc2c(c1)c(CC(=O)O)c(C)n2C(=O)c1ccc(Cl)cc1 [INDOMETHACIN] | 98.5% | – | – | 106.8% | – | – | –
5 | O=C(O)Cc1c(Cl)n(-c2ccccc2)c2ccccc12 | 170.3% | 165.9% | 138% | 200.9% | 191.8% | 186.4% | > 500 mg/kg

From ChEMBL document CHEMBL3272342, “Nonsteroidal antiinflammatory agents. 2. Synthesis and biological activity of 2-chloroindolecarboxylic acids” (J Med Chem, 1977)
